# According to patent US20110236395A1, “TREATMENT OF FIBROTIC EYE DISORDERS USING AN MMP2 INHIBITOR” (UNIVERSITY OF EAST ANGLIA, priority 2008, published 2011):
# Legend:
# FHL 124 cells = experiment: Patch contraction assay (TGF-β-induced matrix contraction); format: cell-based, human
# Experimental: FIG. 2. […] FHL 124 cells were seeded to form patches, maintained in serum-free medium before exposure to experimental conditions. All cultures were maintained for 72 hours in 5% EMEM (Eagle's minimal essential medium) alone or 5% FCS (fetal calf serum) EMEM supplemented with 10 ng/mL TGF-β1 or -β2±the MMP inhibitor GM6001 (25 μM). (A) Visual representations of patch assay cultures in different experimental conditions. (B) Quantified data showing differences in patch area. (C) Data showing differences in cell populations between patch areas (Coomassie blue dye was extracted and quantified from the same experiment as presented in (B)). In FIGS. 2(B) and (C) each left hand bar of the bar pairs reports the result in the absence of GM6001 (indicated as “−GM6001” in the key) and the right hand bar reports the result in the presence of GM6001 (indicated as “+GM6001” in the key). Data represent mean±SEM. * Indicates a significant difference from unstimulated control cells. # Indicates a significant difference between siMMP2 treated cells and SCR siRNA counterparts (p≦0.05, ANOVA with the Tukey test).
# FIG. 6. MMP2 is important for TGF-β-induced matrix contraction. FHL 124 cells were seeded to form patches, then transfected with siRNA targeted to MMP2 or SCR negative control and maintained in Optimem™ (Invitrogen Corporation; Optimem is a modified EMEM, buffered with HEPES and sodium bicarbonate and supplemented with hypoxanthine, thymidine, sodium pyruvate, L-glutamine or Glutamax, trace elements and growth factor; the protein level is minimal (15 μg/mL) with insulin and transferrin being the only protein supplements; phenol red is included as a pH indicator). Patches were measured after 72 hours of culture with 10 ng/mL TGF-β1 or […]. (A) Visual representations of patch assay cultures in different experimental conditions. (B) Quantified data showing differences in patch area. (C) Data showing differences in cell populations between patch areas (Coomassie blue dye was extracted and quantified from the same experiment as presented in (B)). In FIGS. 6(B) and (C) each left hand bar of the bar pairs reports the result with Scramble siRNA (indicated as “Scramble SiRNA” in the key) and the right hand bar reports the result in the presence of MMP2 specific siRNA (indicated as “MMP2 SiRNA” in the key). The data in (B) and (C) represent the mean±SEM (n≦4). *Indicates a significant difference from unstimulated control cells. # Indicates a significant difference between siMMP2 treated cells and SCR siRNA counterparts (p≦0.05, ANOVA with the Tukey test).
# FIG. 7. MMP2 inhibition using neutralising antibody ([…]) prevents TGF-β2 (10 ng/ml)-induced matrix contraction assessed by patch assay. In FIG. 7(B) each left hand bar of the bar pairs reports the result in the absence of the antibody (indicated as “−4 μg/ml Anti MMP2” in the key) and the right hand bar reports the result in the presence of the antibody (indicated as “+4 μg/ml Anti MMP2” in the key). Data expressed as Mean±SEM (n=3).
# FHL 124 cells were seeded at four sites on a tissue culture dish at 5000 cells in 25 μl and maintained in EMEM supplemented with 5% FCS until confluent regions spanning about 5 mm developed (Wormstone et al, Exp. Eye Res. (2004), 78, pages 705-14). The medium was then replaced with non-supplemented EMEM, and the cells were cultured for a further 24 hours, followed by the removal of medium from four patch culture dishes fixed for 30 minutes with 4% formaldehyde at room temperature, followed by washing in PBS. The patches were used as a t=0 reference control.
# All remaining cell cultures were exposed to experimental conditions for up to 3 days. Experiments were terminated after the appearance of cell-free regions (holes) within the central region of the patch, by fixation for 30 minutes with 4% formaldehyde at room temperature. […]
# [1] = tested on: MMP2 gene expression in FHL 124 cells; experiment: Quantitative real-time PCR of MMP2 gene expression after siRNA transfection; format: cell-based, human; conditions: 100 nM siRNA
# Experimental: FIG. 4. Validation of siRNA directed against specific inhibition of MMP2 for 24 hours using targeted siRNA techniques leads to a greater than 90% reduction in MMP2 gene expression. Furthermore, after 48 hours from initial MMP2 SiRNA transfection, MMP2 gene expression levels are still reduced by more than 80% in comparison with Scramble SiRNA controls. Each left hand bar of the bar pairs reports the result with Scramble siRNA (indicated as “Scramble SiRNA” in the key) and the right hand bar reports the result in the presence of MMP2 specific siRNA (indicated as “MMP2 SiRNA” in the key).
# Total RNA was extracted from tissue and primary cultured cells (RNeasy micro kits; Qiagen, West Sussex, UK) in accordance with the manufacturer's instructions. In the initial step, RLT buffer (containing-mercaptoethanol) was added directly to phosphate buffered saline (PBS)-washed culture monolayers. Cultured cell lysates were removed with a cell scraper. Each sample was then transferred to an individual Eppendorf tube and passed through a needle and syringe. The remainder of the protocol was as described by the manufacturer and included a DNAse step. Quality control was maintained with an RNA analyzer (Bioanalyzer 2100; Agilent, West Lothian, UK) and an RNA lab chip (6000 Nano lab chip; Agilent) to ensure that 28S and 18S rRNA bands were clearly evident in total RNA samples. RNA was quantified with a spectrophotometer (ND-1000; NanoDrop, Wilmington, Del., USA). For the samples analyzed, the 260:280 ratio ranged from 1.8 to 2.2 (mean, 2.0). Where possible, total RNA was immediately used for cDNA generation or was briefly stored at −80° C. […]
# Quantitative real-time PCR was used to analyze mRNA expression for all genes in FHL 124 cells (for a comprehensive description of MMPs and TIMPs primer/probe sets used, see Nuttall R. K. et al. (Mol Cancer Res (2003) 1, pages 333-345. Assuming 100% efficiency in the reverse transcription reaction, either 1 ng or 5 ng cDNA was used in real-time PCR reactions performed using a real-time PCR machine (ABI7700; Applied Biosystems). Reagent-based assays (Taq-Man Universal PCR Master Mix, No AmpErase UNG; Applied Biosystems) with all PCR reagents were used according to the manufacturer's instructions. The amount of amplification associated with priming from genomic DNA contamination was evaluated with control reverse transcription reactions containing all reagents without reverse transcriptase. […] The cycle number at which amplification entered the exponential phase (cycle threshold [CT]) was determined, and this number was used as an indicator for the amount of target RNA in each sample analyzed. […]
# MMP2 = experiment: Gelatin zymography of MMP2 protein expression after siRNA transfection; format: cell-based, human; conditions: over a 72 hour period, zymography of culture media
# Experimental: FIG. 5. SiMMP2 suppresses MMP2 protein expression. […] However, throughout this period the MMP2 level in the siMMP2 treated cells is about 50% of the siRNA control cells (SCR). In FIG. 5A each left hand bar of the bar pairs reports the result with Scramble siRNA (indicated as “Scramble SiRNA” in the key) and the right hand bar reports the result in the presence of MMP2 specific siRNA (indicated as “MMP2 SiRNA” in the key).
# Gelatinolytic activity of culture media was analyzed by electrophoresis under non-reducing conditions on a 7% SDS-polyacrylamide gel containing 0.5 mg/mL denatured collagen type I (gelatin; Sigma) as previously described by Gavrilovic J. et al. (Cell Regul. (1990) 1, pages 1003-14). After electrophoresis, gels were washed twice in 2.5% Triton-X 100 for 15 minutes and then incubated for 4 hours at 37° C. in 100 mM Tris-HCl (pH 7.9), 30 mM CaCl2, and 0.02% sodium azide. The gels were stained with Coomassie brilliant blue (Sigma), and the images were captured with a gel scanner.
# Custom made MMP2 siRNA: sense 5′-[…]-3′ (SEQ. ID. NO: 1), antisense 5′-[…]-3′ (SEQ. ID. NO: 2) and siRNA negative control (universal scrambled siRNA) were used. Both siRNAs were purchased from Ambion Ltd. (Huntingdon, UK). FHL 124 cells were seeded onto 35-mm culture dishes at either 25,000 cells in 1.5 ml for protein extraction or as four patches of 5000 cells, for patch assay analysis. […]
# HLE-B3 = HLE-B3 cell line; cited from earlier work
# excised rat lenses = conditions: concentrations typically micromolar; cited from earlier work
# [2] = tested on: posterior capsule / capsular bag; conditions: in the absence of TGF-β; cited from earlier work
# [3] = siMMP2 transfected, 10 ng/ml TGF-β1 or TGF-β2, 72 hours
# [4] = 25 μM GM6001 in presence of 10 ng/ml TGF-β1 or TGF-β2, 72 hours
compound,measurement,setting,value
"siMMP2: Custom made MMP2 siRNA: sense 5′-GGACACACUAAAGAAGAUGTT-3′, antisense 5′-CAUCUUCUUUAGUGUGUCCTT-3′, purchased from Ambion (chemistry not given here)",TGF-β-induced contraction,FHL 124 cells; [3],did not show any evidence of contraction
same,patch area vs non-TGF-β-treated controls,FHL 124 cells; [3],did not differ significantly from non-TGF-β-treated controls
same,patch area vs SCR control,"FHL 124 cells; siRNA transfected, non-stimulated conditions (no TGF-β)",did not show a statistical difference in patch area from the SCR control
same,reduction in MMP2 gene expression,"[1]; 24 hours in transfection conditions, vs negative control siRNA",greater than 90%
same,reduction in MMP2 gene expression,"[1]; 24 hours in transfection conditions, vs negative control siRNA, listed as siRNA against MMP2",90%
same,reduction in MMP2 gene expression,"[1]; 48 hours from transfection, vs Scramble siRNA controls",more than 80%
same,reduction in MMP2 gene expression,"[1]; 48 hours from transfection, vs Scramble siRNA controls, listed as siRNA against MMP2",> 70%
same,MMP2 protein level relative to Scrambled siRNA control,MMP2,about 50%
same,MMP2 protein level relative to Scrambled siRNA control,MMP2; listed as siRNA against MMP2,approximately 50%
O=C(O)[C@@H](Cc1ccccc1)NS(=O)(=O)c1ccc(-c2ccccc2)cc1 [(2R)-2-[(4-biphenylylsulphonyl)amino]-3-phenylpropionic acid],TGF-β1-induced morphological change in the cells,HLE-B3,blocked
O=C(NO)[C@@H](Cc1ccccc1)NS(=O)(=O)c1ccc(-c2ccccc2)cc1 [(2R)-[(4-biphenylylsulfonyl)amino]-N-hydroxyl-3-phenylpropionamide],occurrence of TGF-β-induced anterior subcapsular cataracts (ASCs),excised rat lenses,prevents the occurrence
"CNC(=O)[C@H](Cc1c[nH]c2ccccc12)NC(=O)[C@@H](CC(=O)NO)CC(C)C [GM6001, N-[(2R)-2-(hydroxamidocarbonylmethyl)-4-methylpentanoyl]-L-trypto-phan methylamide]",effect on patch area relative to control,"FHL 124 cells; 25 μM GM6001 alone (no TGF-β), 72 hours, vs control 5% FCS EMEM group",no significant effect on patch area
same,formation of cell free zones,FHL 124 cells; [4],suppressed the formation of cell free zones
same,patch area vs un-stimulated control group,FHL 124 cells; [4],did not significantly differ from the un-stimulated control group
same,TGF-β-induced matrix contraction,"FHL 124 cells; GM6001 25 μM, 10 ng/mL TGF-β1 or -β2, 72 hours (FIG. 2 legend)",prevents TGF-β-induced matrix contraction
same,total protein content by Coomassie blue dye extraction (cell population),"FHL 124 cells; patches ± 10 ng/ml TGF-β1 or -β2 ± GM6001, 72 hours",no significant changes
same,capsular bag contraction,[2],suppress consequent capsular bag contraction
same,cell migration onto the posterior capsule surface,[2],suppress cell migration onto the posterior capsule surface
same,occurrence of TGF-β-induced anterior subcapsular cataracts (ASCs),excised rat lenses,prevents the occurrence
